Measured values taken from paper PMC10447463, “Data-mining unveils structure–property–activity correlation of viral infectivity enhancing self-assembling peptides” (Nature Communications, 2023).
Where “and” joins values, the source holds several entries; their conditions need not be identical. Equal values may be shown once. Read-outs that look alike come from different tables or passages of the source.

What was measured:
[1] = type: physicochemical; settings: STD prep
[2] = system: HIV-1 infection of TZM-bl cells; assay: HIV-1 infectivity enhancement assay, β-galactosidase luminescence; type: cell-based; settings: for Rel-to EFC / n-fold to virus: Fig S8 panels B, D; for Log10 Inf. rel. to EF-C: log10 of HIV-1 infection of TZM-bl cells relative to EF-C, Fig S15 source data, asymmetric std dev errors
[3] = β-sheet content by ATR-FT-IR; type: physicochemical
Outline: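 Fluorescamine labelling (20 min RT, λex 365/λem 470 nm) of 3 kDa-MWCO filtrate and unfiltered fibril samples, redissolved in DMSO, gave conversion rate as 100 minus the percentage filtrate/original intensity, in triplicate. Secondary structure was quantified by ATR FT-IR on lyophilized 1 mg/mL fibrils, 64 scans.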

[4] = type: physicochemical
Outline: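 Preformed peptide fibrils (1 mg/mL) mixed with 50 µM ThT in PBS, 15 min at RT, fluorescence ex 440/em 488 nm versus PBS blank, triplicates. Zeta potential: peptides at 1 mg/mL in PBS pH 7.4, aged 1 d at RT, diluted in 1 mM KCl, Smoluchowski from electrophoretic mobility.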

[5] = Feb2021, 1.3 µM value relative to virus only (0 µM)
[6] = Feb2021, Log10 of infectivity relative to EF-C
[7] = Feb2021, n-fold enhancement relative to EF-C
[8] = Feb2021, n-fold infectivity relative to EF-C
[9] = Feb2021, unrounded values of the 1.3 µM column
[10] = Feb2021 run, infectivity n-fold relative to virus alone
[11] = Feb2021 run, log10 of infectivity relative to EF-C
[12] = Feb2021 run, n-fold infectivity relative to EF-C
[13] = infectivity enhancement relative to EF-C
[14] = infectivity n-fold relative to virus alone
[15] = infectivity class (low / medium / high) of each library peptide, main list in c1-c6, same classes repeated in sub-lists of sequences containing the hydrophobicity/charge patterns P+,H0,P+,H0,P0,H0,P0, P+,H0,P0,H0,P0,H0,P0, P+,H0,P0,H0
[16] = infectivity class (low / medium / high) of the peptide in the sequence-pattern analysis, Fig. S22-A4, class limits not given
[17] = ThT fluorescence relative to blank (42.1851851851852 a.u.)
[18] = relative to blank 42.1851851851852 a.u.
[19] = Feb2021, log10 of infectivity relative to EF-C
[20] = Feb2021, figures match the 1.3 µM column
[21] = Feb2021, infectivity relative to virus only
[22] = infectivity enhancement relative to EF-C (=1), Feb2021 run
[23] = infectivity n-fold relative to virus only, Feb2021 run
[24] = log10 of infectivity relative to EF-C, Feb2021 run
[25] = ThT fluorescence relative to blank, blank = 42.1851851851852
[26] = Feb2021, infectivity enhancement relative to EF-C

Substance	TEM: 1= fibrils, 0= aggregates (micelle), 0.5 = aggregates and fibrils, -1 = nothing obersved, STD prep [1]	n-fold to virus (Feb2021) [2, 5]	Log10 of Rel to EFC (Feb2021) [2, 6]	Rel-to EFC (Feb-2021) [2, 7]	Rel-to EFC (Feb-2021) [2, 8]	Absolute Infectivity / RLU /s (Feb2021) [2, 9]	n-fold to virus (Feb2021) [2, 10]	Log10 of Rel to EFC (Feb2021) [2, 11]	Rel-to EFC (Feb-2021) [2, 12]	Rel-to EFC [2, 13]	n-fold to virus [2, 14]	infectivity [2, 15]	infectivity [2, 16]	Log10 Inf. rel. to EF-C [2]	FTIR ß-sheet content/ % [3]	FTIR ß-sheet content/ % ([3]; ATR-FT-IR)	Tht rel to blank (42.1851851851852) [4, 17]	Tht category (> 1.5 to blank = +) ([4]; category 1/0)	Tht rel to blank (42.1851851851852) [4, 18]	Absolute Infectivity / RLU /s (Feb2021) [2, 20]	further results
KFKFQFNMWQ [JG4]	1	32.14	-0.1164	0.7649	0.7649	20676.66667 RLU /s	32.14	-0.1164	0.7649	0.7649	32.1399	high	high	-0.1164	43.15%	43% and 43.15%	2.807	1 (ThT. Cat is 1, if Rel. ThT >2)	2.807	–	TEM: 1= fibrils, 0= aggregates (micelle), 0.5 = aggregates and fibrils, -1 = nothing obersved, STD prep ([1]; TEM): 1; Absolute Infectivity / RLU /s (Feb2021) ([2]; Feb2021 data set, in other rows equals the 1.3 µM column, mean, STD in separate column): 20676.66667 RLU /s; Rel-to EFC (Feb-2021) ([2]; Feb2021 data set, infectivity enhancement relative to EF-C): 0.7649; n-fold to virus (Feb2021) ([2]; Feb2021 data set, infectivity n-fold to virus alone): 32.14; Log10 of Rel to EFC (Feb2021) ([2]; Feb2021 data set, log10 of infectivity relative to EF-C): -0.1164; Tht category (> 1.5 to blank = +) ([4]; FigS26): 1 (Tht category (> 1.5 to blank = +)); Tht category (> 1.5 to blank = +) ([4]; category from ThT rel to blank): 1 (ThT. Cat is 1, if Rel. ThT >2)
CKFKFQFNM [BL3]	1	52.19	0.09417	1.242	1.242	28183.33333 RLU /s	52.19	0.09417	1.242	1.242	52.19	high	high	0.09417	41%	41%	2.383	1 (ThT. Cat is 1, if Rel. ThT >2)	2.383	–	–
QCKFKFQFNMWQ [CK7]	1	25.99	-0.2086	0.6186	0.6186	19753.33333 RLU /s	25.99	-0.2086	0.6186	–	–	medium	–	-0.2086	47.05%	47% and 47.05%	1.854	0 (ThT-inactive (N-Fold <2))	1.854	–	–
CSISIQI [TM141]	1	2.35	–	–	0.05593	3087 RLU /s	–	–	–	0.05593	2.35	–	low	-1.252	–	58.57%	–	1 (ThT. Cat is 1, if Rel. ThT >2)	15.04	–	Log10 of Rel to EFC (Feb2021) [2, 19]: -1.252
KIKQII [msis21]	0	–	-2.308	0.004924	0.004924	–	–	–	–	–	–	–	low	-2.308	38.67%	39% and 38.67%	1.001	0 (ThT-inactive (N-Fold <2))	–	100 RLU /s	n-fold to virus (Feb2021) [2, 21]: 0.2069; Rel-to EFC (Feb-2021) [2, 22]: 0.004924; n-fold to virus (Feb2021) [2, 23]: 0.2069; Log10 of Rel to EFC (Feb2021) [2, 24]: -2.308; Tht rel to blank (42.1851851851852) [4, 25]: 1.001
QCKFKQFFNM [CK11]	0.5	–	-0.3706	–	0.426	–	17.9	-0.3706	0.426	–	–	medium	–	-0.3706	41.84%	42% and 41.84%	12.72	1 (ThT. Cat is 1, if Rel. ThT >2)	12.72	5847 RLU /s	Rel-to EFC (Feb-2021) [2, 26]: 0.426; n-fold to virus (Feb2021) [2, 21]: 17.9; Tht rel to blank (42.1851851851852) [4, 25]: 12.72
CKFKQFF [CK15]	0.5	–	-2.171	–	0.00675	–	0.2836	-2.171	0.00675	0.00675	0.2836	low	–	-2.171	45.41%	45.41%	1.34	0 (ThT-inactive (N-Fold <2))	1.34	260 RLU /s	Rel-to EFC (Feb-2021) [2, 26]: 0.00675; n-fold to virus (Feb2021) [2, 21]: 0.2836; Tht rel to blank (42.1851851851852) [4, 25]: 1.34
CKIKQIINMWQ [MG5a / CK17]	1	–	0.09484	1.244	1.244	–	52.27	0.09484	1.244	1.244	52.27	–	high	0.09484	51%	51%	48.46	1 (ThT. Cat is 1, if Rel. ThT >2)	48.46	23696.66667 RLU /s	n-fold to virus (Feb2021) [2, 21]: 52.27; Rel-to EFC (Feb-2021) [2, 22]: 1.244; n-fold to virus (Feb2021) [2, 23]: 52.27; Log10 of Rel to EFC (Feb2021) [2, 24]: 0.09484; Tht rel to blank (42.1851851851852) [4, 25]: 48.46
KFKFQFNM [BL6a]	1	19.81	-0.3265	0.4715	0.4715	7067 RLU /s	19.81	-0.3265	0.4715	–	–	medium	–	-0.3265	40.31%	40% and 40.31%	1.202	0 (ThT-inactive (N-Fold <2))	1.202	–	–
MKFKFQF [DF5 / CK16]	1	2.675	–	–	0.06366	1427 RLU /s	–	–	–	–	–	low	–	-1.196	–	21.97%	–	0 (ThT-inactive (N-Fold <2))	0.9846	–	Log10 of Rel to EFC (Feb2021) [2, 19]: -1.196
